Our source for the slope values is PubChem BioAssay AID634 (Vanderbilt High Throughput Screening Facility, 2007).

Activity calls are given as the source filed them. No rule for the calls is given here.

In the assay the target is Voltage-gated potassium channel subunit beta-2 (Rattus norvegicus) (UniProt P62483). In words: retested enhancers of rat Kvbeta2 activity – biochemical, confirmation (AID 634). The settings on record: Rat Kvbeta2 enzymatic assay, slope read-out; hits give low values.
Voltage-gated potassium channel subunit beta-2 (Rattus norvegicus), sequence (P62483 whole entry, looked up): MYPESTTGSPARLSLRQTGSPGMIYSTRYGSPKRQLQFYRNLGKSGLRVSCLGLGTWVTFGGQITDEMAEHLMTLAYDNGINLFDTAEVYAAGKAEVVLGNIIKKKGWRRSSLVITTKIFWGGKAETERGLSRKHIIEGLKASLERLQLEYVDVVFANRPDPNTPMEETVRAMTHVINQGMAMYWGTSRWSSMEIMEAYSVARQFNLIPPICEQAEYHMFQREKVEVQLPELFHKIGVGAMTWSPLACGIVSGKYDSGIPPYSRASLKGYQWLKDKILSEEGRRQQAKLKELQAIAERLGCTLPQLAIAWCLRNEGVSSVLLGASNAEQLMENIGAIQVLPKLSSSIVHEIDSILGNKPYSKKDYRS

In the case of `CCOC(=O)C1=C(N)OC(C)=C(C(=O)OCCOC)C12C(=O)Nc1ccccc12` (configuration not stated), the slope was 0.0877 (inactive).

In the case of `CC(O)CNc1nc2c(c(=O)n(C)c(=O)n2C)n1CCc1ccccc1` (configuration not stated), the slope is 0.0661 (inactive). The same measure for `O=C(NCCC1=CCCCC1)N[C@@H](Cc1ccccc1)C(=O)O`: 0.0842 (inactive); for `CCn1cc(C(=O)Nc2cc3c(cc2NC(C)=O)OCCO3)c(=O)c2ccc(C)nc21`: 0.112 (inactive); for `Cc1ccc(N2C(=O)C3ON(c4ccccc4)C(c4ccncc4)C3C2=O)cc1` (configuration not stated): 0.0514 (inactive). Consider `CCOc1ccccc1Nc1nc2ccccc2[nH]1`, for which the slope was 0.0352 (inactive). As for `O=C(C1=C(O)C(=O)N(CCCN2CCOCC2)C1c1ccccn1)c1cc2ccccc2o1` (configuration not stated), the slope was 0.134 (inactive). The same measure for `Cc1ccc2c(c1)[C@@H]1CN(C)CC[C@@H]1N2C(=O)Nc1cccc(C(F)(F)F)c1`: -0.0275 (inactive); for `CCN(CC)CCCn1c(=S)[nH]c2cc(Cl)ccc2c1=O`: 0.133 (inactive); for `O=C(NCc1cccs1)C(Cc1ccccc1)NS(=O)(=O)c1cccs1` (configuration not stated): 0.0568 (inactive). Regarding `CCOC(=O)CNC(=O)Nc1ccccc1C(=O)OC`, the slope is 0.092 (inactive). The same measure for `CC(=O)Oc1ccc2c(C)cc(=O)[nH]c2c1`: 0.0957 (inactive); for `CN1C(=S)SC(C)(NO)C1(C)C` (configuration not stated): -0.536. As for `O=c1c2ccccc2[se]n1-c1ccccc1`, the slope was -0.798. The same measure for `CC(c1ccco1)N(C(=O)c1ccc(S(=O)(=O)N2CCCCC2)cc1)c1ccccn1` (configuration not stated): 0.0766 (inactive); for `NS(=O)(=O)c1cc2c(cc1Cl)NC=NS2(=O)=O`: 0.0676 (inactive); for `COc1ccccc1C1/C(=C(/O)c2ccc(OC(C)C)cc2)C(=O)C(=O)N1c1cc(C)on1` (configuration not stated): 0.0306 (inactive).

Regarding `CCCCCC#CCC#CCC#CCC#CCCCC(=O)O`, the slope was -0.0283 (inactive).

As for `C=CCn1c(SCC(=O)NCC2CCCO2)nc2scc(-c3ccco3)c2c1=O` (configuration not stated), the slope was 0.0642 (inactive). The same measure for `COc1cccc(Oc2ccc(N)cc2)c1`: 0.062 (inactive); for `Cn1c(SCC(=O)Nc2ccc3c(c2)oc2ccccc23)nnc1-c1ccccc1`: 0.119 (inactive). The same measure for `CCCCOc1ccc(-c2nnn(C(C)(C)C(=O)OC)n2)cc1`: 0.0535 (inactive).
